Experimental data: US11530196B2, “Pyrimidine compound acting on EGFR and ERBB2” (CHINA RESOURCES PHARMACEUTICAL HOLDINGS COMPANY LIMITED, priority 2019, dated 2022)
pIC50: −log10 of the molar value.

Assays:
Wild-type EGFR enzymes = target: T1, Wild-type EGFR enzymes (Homo sapiens, UniProt P00533); assay: Kinase assay (HTRF KinEASE TK), EGFR WT; type: biochemical; conditions: read-out: Enzyme IC50
T1 construct: purchased Invitrogen PR7295B
Text: To detect the inhibitory effect of compounds on EGFR WT, EGFR (D770_N771insNPG), ERBB2 (V777_G778ins>CG), EGFR T790M/L858R enzyme activities
EGFR WT (Invitrogen, Cat. No. PR7295B), EGFR [L858R] (Invitrogen, Cat. No. PR7447A), EGFR [d746-750] (Invitrogen, Cat. No. PV6179), ATP (Sigma, Cat. No. A7699-1G), DMSO (Sigma, Cat. No. D2650), DTT (Sigma, Cat. No. 43815), 384-well plate, compound dilution plate (Greiner, Cat. No. 781280), 384-well plate, test plate (Perkin Elmer, Cat. No. 6007299), HTRF KinEASE TK Kit (Cisbio, Cat. No. 62TK0PEB), magnesium chloride (Sigma, Cat. No. M1028), Orthovanadate (Sigma, Cat. No. 56508), BSA (Sigma, Cat. No. A7030), HEPES (Life technology, Cat. No. 11344-041).
The final test concentrations of the test compounds ranged from 10 μM to 0.17 nM in 3-fold gradient dilutions at 11 concentrations.
The preparation of the buffer, 50 mM HEPES (pH 7.5), 0.01% BSA, 5 mM MgCl2, and 0.1 mM Orthovanadate were contained in the buffer. After the preparation of the buffer, the enzyme and substrate were mixed with pre-diluted prepared compounds of different concentrations, and the mixture was placed at room temperature for 15 minutes. […] After the reaction was completed, the antibody was added to the assay, incubated at room temperature for 60 minutes and then detected by Envision (plate reading instrument), and data were collected. […]

[1] = test system: A431 (EGFR wild type) cells; assay: Anti-proliferation activity test against A431 cells; type: cell-based; conditions: Homo sapiens, A-431; A431, Cell-Titer Glo, 72 hours
Description: (§1) (2) Anti-Proliferation Activity Test of the Compound Against H1975 Cells and IC50 Test of Anti-Proliferation Activity Against A431 Cells
(§2) RPMI1640 medium, FBS fetal bovine serum, trypsin-EDTA, were all purchased from Giboco. DPBS was purchased from Corning, penicillin/streptomycin solution was purchased from Hyclone, and Cell-Titer Glo reagent was purchased from Promega (1kit, Cat. No. G7571). Plate reading instrument: Envision (PerkinElmer).
(§3) 384-well plates in columns 1, 2, and 24 were added with 45 μL of medium, and the cell suspension was dispensed with Multi-drop at 45 μL per well (1000 cells) and incubated overnight in an incubator. The compound was added to the source plate according to the Echo dispensing requirements, the compound in the source plate was added to the inter plate and diluted to an intermediate concentration, then the compound in the source plate and the inter plate was added to the cell plate, and the cells were continued to be incubated in a incubator for 72 hours. After 72 hours, Cell-Titer Glo reagent and cells were removed and equilibrated at room temperature for 30 min. 25 μL of Cell-Titer Glo reagent was dispensed into 384-well plates with Multi-drop, the cell plate was vibrated at medium speed for 3 min, centrifuged at 1000 rpm for 2 min, and stood for 10 min. The plate was read by Envision (Luminescence). […]

[2] = test system: H1975 (L858R/T790M) cells; assay: Anti-proliferation activity test against H1975 cells; type: cell-based; conditions: Homo sapiens, NCI-H1975, Cell-Titer Glo, 72 hours
Description: as §1, §2, §3

[3] = Pharmacokinetic study, single intravenous and oral administration in mice; type: in vivo; conditions: mouse, plasma
Description: The purpose of this experiment was to investigate the pharmacokinetics (PK) of the compounds in different species after single intravenous and single oral administration of the test compounds.
After intravenous or oral administration, blood samples were collected from the animals, and the actual time of blood collection was recorded. After the blood samples were collected, the samples were immediately transferred to the labelled centrifuge tube containing K2-EDTA, and then centrifuged to obtain plasma. Plasma was transferred to pre-cooled centrifuge tubes, quick-frozen in dry ice and stored in an ultra-low temperature refrigerator at −70±10° C. until LC-MS/MS analysis was performed.
The plasma drug concentration data of the compounds were processed using pharmacokinetic software with a non-compartmental model. The peak concentration (Cmax) and time to peak (Tmax), as well as the quantifiable end time were obtained directly from the plasma concentration-time curve. The following pharmacokinetic parameters were calculated using the log-linear trapezoidal method: half-life (T1/2), apparent volume of distribution (Vdss), and clearance (Cl), area under the time-plasma concentration curve from point 0 to the end time point (AUC0-last), and initial concentration (C0).

T1 sequence (P00533 25-1210): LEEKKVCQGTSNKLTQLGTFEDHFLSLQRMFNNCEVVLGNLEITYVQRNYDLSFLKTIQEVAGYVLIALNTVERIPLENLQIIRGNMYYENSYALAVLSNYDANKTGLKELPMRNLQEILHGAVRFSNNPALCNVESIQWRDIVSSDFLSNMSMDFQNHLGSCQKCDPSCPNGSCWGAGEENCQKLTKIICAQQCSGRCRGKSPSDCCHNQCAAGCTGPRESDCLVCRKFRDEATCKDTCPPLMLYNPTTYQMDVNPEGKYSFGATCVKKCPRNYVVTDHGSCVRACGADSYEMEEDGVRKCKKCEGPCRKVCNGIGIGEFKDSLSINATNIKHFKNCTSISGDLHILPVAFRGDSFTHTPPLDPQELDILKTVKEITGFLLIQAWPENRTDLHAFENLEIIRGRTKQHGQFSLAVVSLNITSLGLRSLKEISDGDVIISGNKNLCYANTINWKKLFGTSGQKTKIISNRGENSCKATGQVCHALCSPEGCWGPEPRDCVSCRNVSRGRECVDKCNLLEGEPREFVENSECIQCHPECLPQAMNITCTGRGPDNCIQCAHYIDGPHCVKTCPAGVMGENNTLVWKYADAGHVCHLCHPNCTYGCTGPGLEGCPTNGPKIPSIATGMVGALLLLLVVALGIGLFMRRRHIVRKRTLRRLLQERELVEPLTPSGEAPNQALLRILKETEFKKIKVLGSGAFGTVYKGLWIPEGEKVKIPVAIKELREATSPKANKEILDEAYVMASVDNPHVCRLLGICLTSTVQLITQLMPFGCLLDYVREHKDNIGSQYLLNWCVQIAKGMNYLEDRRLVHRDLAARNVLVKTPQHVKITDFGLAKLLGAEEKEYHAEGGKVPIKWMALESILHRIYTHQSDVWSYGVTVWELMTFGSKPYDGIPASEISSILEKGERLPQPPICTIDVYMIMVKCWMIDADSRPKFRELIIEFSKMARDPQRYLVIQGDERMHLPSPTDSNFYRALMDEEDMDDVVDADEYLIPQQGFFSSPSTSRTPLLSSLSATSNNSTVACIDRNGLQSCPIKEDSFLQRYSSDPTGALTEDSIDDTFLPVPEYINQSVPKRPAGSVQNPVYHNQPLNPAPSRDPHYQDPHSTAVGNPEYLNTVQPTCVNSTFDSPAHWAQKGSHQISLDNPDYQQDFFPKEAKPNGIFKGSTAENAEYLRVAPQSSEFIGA

pIC50 (Wild-type EGFR enzymes): 9.41
pIC50 [1]: 6.47
pIC50 [2]: 7.82
clearance ([3]; intravenous injection 2 mg/kg): 57.7 mL/min/kg
half-life ([3]; intravenous injection 2 mg/kg): 1.76 h
AUC ([3]; intravenous injection 2 mg/kg, read-out: Exposure of AUC): 0.884 µM·h
Vd ([3]; intravenous injection 2 mg/kg, read-out: Vdss): 6.95 L/kg
Cmax ([3]; oral 10 mg/kg): 300 nM
Tmax ([3]; oral 10 mg/kg): 2 h
bioavailability ([3]; oral 10 mg/kg): 22.1%
AUC(0-t) ([3]; oral 10 mg/kg, read-out: Exposure of AUC0-last): 1.42 µM·h
SMILES: C=CC(=O)Nc1cc(Nc2ncc(C(=O)OC(C)C)c(-c3cn(OC)c4ccccc34)n2)c(OC)cc1N(C)CCN(C)C.CS(=O)(=O)O [Compound 1]
